The source of these data is patent US8168651B2, “Protein kinase modulators” (Cylene Pharmaceuticals, Inc., priority 2008, dated 2012).

One test has as its target recombinant human CK2 (Homo sapiens (Human), UniProt P68400). Put plainly: CK2 assay (cell-free, 33P-ATP filter plate). It counts as biochemical. To be noted: 500 nM compound, cell-free assay; read-out: CK2: % inh 500 nM.
Test [1] deals with HCT-116 human colorectal carcinoma cells. Put plainly: Cell-proliferation assay using Alamar Blue dye.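 Also: cells exposed to compound for about 4 days, then Alamar Blue added and dye fluorescence read after about 4 h, compared with medium-only control wells.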 The following applies: Homo sapiens, HCT-116, second HCT-116 column (c8); read-out: HCT-116 (uM) cell proliferation modulatory activity. It counts as cell-based. For orientation: Alamar Blue is a resazurin reagent that responds to reducing activity.
A further test has as its target recombinant human PIM1 (Homo sapiens (Human), UniProt P11309). Put plainly: PIM-1 kinase activity in cell-free in vitro assay. It counts as biochemical. To be noted: cell-free assay; for inhibition at 0.5 µM: 500 nM compound, read-out: PIM-1: % inh 500 nM.
The next test relates to K-562. Put plainly: Cell proliferation modulatory activity, K-562. In kind it is cell-based. To be noted: Homo sapiens, K562; K-562 cells.
The next test deals with MV-4-11. Put plainly: Cell proliferation modulatory activity, MV-4-11. The following applies: Homo sapiens, MV4-11; MV-4-11 cells. In kind it is cell-based.

Chain of recombinant human CK2 (P68400 whole entry): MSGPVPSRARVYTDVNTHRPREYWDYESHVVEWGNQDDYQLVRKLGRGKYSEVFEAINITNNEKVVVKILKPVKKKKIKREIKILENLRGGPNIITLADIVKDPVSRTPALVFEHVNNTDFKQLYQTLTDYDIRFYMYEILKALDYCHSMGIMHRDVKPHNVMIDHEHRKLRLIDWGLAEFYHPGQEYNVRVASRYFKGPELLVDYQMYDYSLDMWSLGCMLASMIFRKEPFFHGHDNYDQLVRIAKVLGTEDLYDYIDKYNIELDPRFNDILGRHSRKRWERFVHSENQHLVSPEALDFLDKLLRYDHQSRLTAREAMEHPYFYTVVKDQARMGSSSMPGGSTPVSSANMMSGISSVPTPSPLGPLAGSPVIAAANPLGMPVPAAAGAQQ
Chain of recombinant human CK2 (P67870 whole entry partner): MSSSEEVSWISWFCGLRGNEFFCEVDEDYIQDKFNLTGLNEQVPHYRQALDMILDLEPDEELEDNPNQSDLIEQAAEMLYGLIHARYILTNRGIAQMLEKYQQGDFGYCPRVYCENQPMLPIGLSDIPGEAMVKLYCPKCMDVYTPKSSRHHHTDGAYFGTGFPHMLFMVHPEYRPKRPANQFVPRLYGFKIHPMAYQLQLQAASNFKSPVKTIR
Chain of recombinant human PIM1 (P11309 whole entry): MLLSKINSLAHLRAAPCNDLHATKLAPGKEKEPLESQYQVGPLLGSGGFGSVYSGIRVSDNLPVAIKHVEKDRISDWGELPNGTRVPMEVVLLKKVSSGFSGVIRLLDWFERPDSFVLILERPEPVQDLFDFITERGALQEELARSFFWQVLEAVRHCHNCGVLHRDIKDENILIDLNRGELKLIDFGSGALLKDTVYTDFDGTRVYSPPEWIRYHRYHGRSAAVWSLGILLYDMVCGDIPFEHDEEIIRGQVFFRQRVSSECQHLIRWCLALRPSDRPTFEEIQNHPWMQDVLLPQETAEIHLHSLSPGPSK

Consider `CC(C)(C)OC(=O)N1CCC(Nc2nc3cc(C#N)ccc3c3sccc23)CC1`, for which the figures for the inhibition at 0.5 µM on recombinant human CK2 and on recombinant human PIM1 were 1.98% and 2.44%, respectively. For the same compound, the IC50 (in test [1]; with K-562; in the test on MV-4-11) was greater than 10 µM in each case.
In the case of `N#Cc1ccc2c(c1)nc(N1CCC(N3CCCC3)CC1)c1ccsc12`, the inhibition at 0.5 µM on recombinant human CK2 is -6.67%; at recombinant human PIM1 it was 35.7%. For the same compound, the IC50 in test [1] was determined as 5.66 µM; with K-562, 6.94 µM; in the test on MV-4-11 it was 3.36 µM.
With `N#Cc1ccc2c(c1)nc(N1CCC(N3CCOCC3)CC1)c1ccsc12`, the figures for the inhibition at 0.5 µM at recombinant human CK2 and on recombinant human PIM1 were -34.7% and 0.408%, respectively. Besides, the IC50 (in test [1]; in the test on K-562; in the test with MV-4-11) was greater than 10 µM in each case.
With `CN(C)CCCN(C)c1nc2cc(-c3nnn[nH]3)ccc2c2sccc12`, the values for the inhibition at 0.5 µM on recombinant human CK2 and on recombinant human PIM1 were 60.1% and 70.5%, respectively. Besides, the IC50 in test [1] was greater than 10 µM; on recombinant human PIM1 it was 0.221 µM; with K-562, greater than 10 µM; in the test on MV-4-11, greater than 10 µM.
Turning to `Fc1cc(F)cc(Nc2nc3cc(-c4nnn[nH]4)ccc3c3cscc23)c1`, the inhibition at 0.5 µM on recombinant human CK2 stood at 52.6%; at recombinant human PIM1, 11.1%. The IC50 (in test [1]; with K-562; with MV-4-11) was greater than 10 µM in each case.
Take `CCc1cccc(Nc2nc3cc(C(=O)O)ccc3c3cnccc23)c1`: the inhibition at 0.5 µM at recombinant human CK2 turned out to be 101%; on recombinant human PIM1, 85%. Moreover, the IC50 was greater than 10 µM in test [1], 0.122 µM on recombinant human PIM1, greater than 10 µM in the test on K-562 and 3.64 µM in the test with MV-4-11.
For the compound `FC(F)(F)c1cccc(Nc2nc3cc(-c4nnn[nH]4)ccc3c3cscc23)c1`, the inhibition at 0.5 µM at recombinant human CK2 was 23.1%; at recombinant human PIM1 it was -6.51%. Also, the IC50 (in test [1]; with K-562; in the test with MV-4-11) was greater than 10 µM in each case.
For the compound `C#Cc1cccc(Nc2nc3cc(C(=O)O)ccc3c3nccnc23)c1`, the inhibition at 0.5 µM on recombinant human CK2 was 85.3%; at recombinant human PIM1 it was -4.59%. The IC50 (in test [1]; in the test with K-562; in the test with MV-4-11) was greater than 10 µM throughout.
In the case of `CN1CC(Nc2nc3cc(C#N)ccc3c3sccc23)C1`, the inhibition at 0.5 µM at recombinant human CK2 came to 20.6%; on recombinant human PIM1, 0.859%. Besides, the IC50 was 0.437 µM in test [1], greater than 10 µM with K-562 and 0.882 µM with MV-4-11.
Taken in the same sequence, the figures for `CC(C)(C)OC(=O)N1CCN(c2nc3cc(C#N)ccc3c3sccc23)CC1` were -35%, -30.9%, greater than 10 µM, greater than 10 µM and greater than 10 µM.
Taken in the same sequence, the figures for `N#Cc1ccc2c(c1)nc(Nc1cccc(F)c1)c1cscc12` were -20.1%, -28.6%, greater than 10 µM, 8.04 µM and greater than 10 µM.
As for `CC(=O)NC1CCN(c2nc3cc(C#N)ccc3c3sccc23)C1` (stereo not shown), the inhibition at 0.5 µM at recombinant human CK2 was -8.88%; at recombinant human PIM1, 5.75%. In addition, the IC50 (in test [1]; in the test with K-562; in the test with MV-4-11) was greater than 10 µM each time.
Take `CN(c1cccc(Cl)c1)c1nc2cc(C(=O)O)ccc2c2cnccc12`: the inhibition at 0.5 µM on recombinant human CK2 is 89.6%; on recombinant human PIM1, 34.8%. Further, the IC50 (in test [1]; with K-562; with MV-4-11) was greater than 10 µM each time.
Regarding `Fc1cccc(Nc2nc3cc(-c4nnn[nH]4)ccc3c3cscc23)c1`, the inhibition at 0.5 µM was 52.6% on recombinant human CK2 and 14% on recombinant human PIM1. In addition, the IC50 (in test [1]; in the test on K-562; in the test on MV-4-11) was greater than 10 µM in each case.
For the compound `O=C(O)c1ccc2c(c1)nc(Nc1ccc(F)c(Cl)c1)c1cnccc12`, the figures for the inhibition at 0.5 µM at recombinant human CK2 and at recombinant human PIM1 were 1.69% and 10.8%, respectively. Further, the IC50 (in test [1]; in the test on K-562; in the test on MV-4-11) was greater than 10 µM throughout.
As for `O=C(O)c1ccc2c(c1)nc(Nc1ccc3ncccc3c1)c1ccncc12`, the figures for the inhibition at 0.5 µM at recombinant human CK2 and on recombinant human PIM1 were 101% and 93.9%, respectively. The IC50 in test [1] is greater than 10 µM; at recombinant human PIM1, 0.089 µM; in the test on K-562, greater than 10 µM; in the test on MV-4-11, 3.2 µM.
In the case of `CC(C)(C)OC(=O)N1CCCC1CNc1nc2cc(C#N)ccc2c2sccc12` (stereo not shown), the inhibition at 0.5 µM on recombinant human CK2 was -35.2%; at recombinant human PIM1, -14.7%. Further, the IC50 (in test [1]; with K-562; in the test on MV-4-11) was greater than 10 µM throughout.
As to `O=C(O)c1ccc2c(c1)nc(NCCc1ccccc1)c1cnccc12`, the inhibition at 0.5 µM at recombinant human CK2 is -0.531%; at recombinant human PIM1 it was 42.2%. Also, the IC50 (in test [1]; in the test on K-562; in the test with MV-4-11) was greater than 10 µM each time.
Turning to `CN(C)CCNc1nc2cc(-c3nnn[nH]3)ccc2c2sc(-c3ccccc3)cc12`, the inhibition at 0.5 µM is 0.269% at recombinant human CK2 and -14.8% at recombinant human PIM1. The IC50 (in test [1]; in the test on K-562; in the test with MV-4-11) was greater than 10 µM throughout.
Consider `NC(=O)c1cc(Cl)cc(Nc2nc3cc(C(=O)O)ccc3c3cnccc23)c1`, for which the inhibition at 0.5 µM turned out to be 102% on recombinant human CK2 and 90.5% on recombinant human PIM1. Moreover, the IC50 is greater than 10 µM in test [1], 0.09 µM at recombinant human PIM1, greater than 10 µM in the test on K-562 and greater than 10 µM in the test on MV-4-11.
Regarding `CCN1CCC[C@@H]1CNc1nc2cc(-c3nnn[nH]3)ccc2c2sccc12`, the values for the inhibition at 0.5 µM at recombinant human CK2 and at recombinant human PIM1 were 78.1% and 89.9%, respectively. Further, the IC50 in test [1] was greater than 10 µM; at recombinant human PIM1, 0.065 µM; with K-562, greater than 10 µM; in the test with MV-4-11, greater than 10 µM.
On to `COC(=O)c1ccc2c(c1)nc(NCCCOC(C)C)c1ccncc12`, for which the inhibition at 0.5 µM turned out to be 90.9% at recombinant human CK2 and 24.2% on recombinant human PIM1. Further, the results for the IC50 (in test [1]; in the test with K-562; in the test on MV-4-11) were greater than 10 µM, greater than 10 µM and 6.42 µM, respectively.
Take `CN1CCCCC1CNc1nc2cc(-c3nnn[nH]3)ccc2c2sccc12` (stereo not shown): the results for the inhibition at 0.5 µM at recombinant human CK2 and on recombinant human PIM1 were 32.8% and 90.9%, respectively. The IC50 in test [1] is greater than 10 µM; at recombinant human PIM1, 0.064 µM; with K-562, greater than 10 µM; with MV-4-11 it was greater than 10 µM.
Consider `O=C(O)c1ccc2c(c1)nc(NCCn1cccc1)c1ccncc12`, for which the inhibition at 0.5 µM turned out to be 99.6% at recombinant human CK2 and 74.5% on recombinant human PIM1. Further, the IC50 was greater than 10 µM in test [1], 0.094 µM on recombinant human PIM1, greater than 10 µM in the test with K-562 and greater than 10 µM in the test on MV-4-11.
For `O=C(O)c1ccc2c(c1)nc(Nc1cccc(F)c1)c1cccnc12`, the inhibition at 0.5 µM at recombinant human CK2 came to 35%; on recombinant human PIM1, 37.8%. In addition, the IC50 (in test [1]; in the test with K-562; with MV-4-11) was greater than 10 µM throughout.
Turning to `CN1CCCC(Nc2nc3cc(-c4nnn[nH]4)ccc3c3sccc23)C1` (stereo not shown), the inhibition at 0.5 µM came to 31.4% at recombinant human CK2 and 90.9% on recombinant human PIM1. Besides, the IC50 is greater than 10 µM in test [1], 0.109 µM at recombinant human PIM1, greater than 10 µM with K-562 and 0.658 µM in the test with MV-4-11.
Turning to `CN(C)CCNc1nc2cc(C#N)ccc2c2sc(Br)cc12`, the results for the inhibition at 0.5 µM at recombinant human CK2 and on recombinant human PIM1 were -7.27% and 12.1%, respectively. Also, the IC50 in test [1] amounted to 0.704 µM; with K-562, 0.719 µM; with MV-4-11 it was 0.588 µM.
In the case of `CC(C)OCCNc1nc2cc(C(=O)O)ccc2c2cnccc12`, the inhibition at 0.5 µM on recombinant human CK2 was found to be 93%; at recombinant human PIM1, 48.2%. The results for the IC50 (in test [1]; with K-562; with MV-4-11) were greater than 10 µM, greater than 10 µM and 9.46 µM, respectively.
Turning to `O=C(O)c1ccc2c(c1)nc(Nc1cccc(Cl)c1)c1nccnc12`, the inhibition at 0.5 µM on recombinant human CK2 came out at 69.3%; on recombinant human PIM1, 9.61%. In addition, the figures for the IC50 (in test [1]; with K-562; in the test with MV-4-11) were greater than 10 µM, greater than 10 µM and 5.81 µM, respectively.
As for `CN1CCC(N(C)c2nc3cc(C#N)ccc3c3sccc23)C1` (stereo not shown), the inhibition at 0.5 µM at recombinant human CK2 was -14.1%; on recombinant human PIM1 it was -6.14%. In addition, the IC50 in test [1] was 4.65 µM; in the test on K-562 it was greater than 10 µM; in the test on MV-4-11, 7.87 µM.
In the same order, the values of `Cc1nccn1CCNc1nc2cc(C#N)ccc2c2sccc12` are -15.7%, 8.62%, greater than 10 µM, greater than 10 µM and greater than 10 µM.
For `c1cc2c(N3CCC(N4CCCC4)CC3)nc3cc(-c4nnn[nH]4)ccc3c2s1`, the values for the inhibition at 0.5 µM at recombinant human CK2 and at recombinant human PIM1 were 38.6% and 90%, respectively. In addition, the IC50 in test [1] was greater than 10 µM; at recombinant human PIM1, 0.119 µM; in the test on K-562, greater than 10 µM; in the test with MV-4-11 it was 1.07 µM.
For the compound `O=C(O)c1ccc2c(c1)nc(Nc1ccc(F)c(Cl)c1)c1cccnc12`, the inhibition at 0.5 µM is 19.6% on recombinant human CK2 and 22.1% on recombinant human PIM1. Besides, the IC50 (in test [1]; in the test on K-562; in the test with MV-4-11) was greater than 10 µM throughout.
Turning to `O=C(O)c1ccc2c(c1)nc(NCCc1ccccc1)c1cccnc12`, the figures for the inhibition at 0.5 µM on recombinant human CK2 and on recombinant human PIM1 were 5.71% and 13.7%, respectively. Besides, the IC50 (in test [1]; with K-562; with MV-4-11) was greater than 10 µM each time.
As for `O=C(O)c1ccc2c(c1)nc(Nc1ccccc1)c1cnccc12`, the inhibition at 0.5 µM on recombinant human CK2 is -40.3%; on recombinant human PIM1, -22.8%. For the same compound, the IC50 (in test [1]; with K-562; in the test on MV-4-11) was greater than 10 µM each time.
